In patent US8183364B2, “Substituted porphyrins” (Duke University, priority 2004, dated 2012):
“Also recorded” adds a separate entry of the source. Marks after values point to notes of the source that are not given here.

Legend:
[1] = tested on: SOD-deficient JI132 E. coli; assay: Aerobic growth of SOD-deficient E. coli; type: cell-based
Protocol: (§1) Aerobic growth of E. coli. Bacterial strains of E. coli used were wild type AB1157 (F-thr-1 leu-1 proA2 his-4 argE3 thr-1 lacY1 galK2 rpsL supE44 ara-14 xyl-15 mtl-1 tsx-33) and SOD-deficient JI132 (same as AB1157 plus (sodA::mudPR13)25 (sodB-kan)1-Δ2. Culture media were prepared as follows. M9 medium: 6 g/L Na2HPO4, 3 g/L KH2PO4, 0.5 g/L NaCl, 1 g/L NH4Cl, 2 mM MgSO4, 0.1 mM CaCl2, adjusted to pH 7.4 with NaOH, and supplemented with 0.2% glucose, 3 mg/L each of D-panthotenic acid and thiamine. M9CA medium contained M9 medium plus 0.2% casamino acids. 5-amino acid (5AA) minimal medium contained M9 medium plus 0.5 mM each of threonine, leucine, histidine, proline and arginine (Faulkner et al, J. Biocl. Chem. 269:23471 (1994)).
(§2) AB 1157 and 31132 were precultured overnight aerobically in M9CA medium at 37° C. and were then diluted to 3×10^7 cells/mL into 5 mL M9CA medium. JI132 was precultured in the presence of 20 μg/mL chloramphenicol and 500 μg/mL kanamycin. When the cells are transferred from M9CA medium to 5AA minimal medium cultures were first centrifuged and washed twice with the 5AA medium before final dilution in it. The centrifugation was conducted at room temperature to avoid temperature shocks. Cultures without and with Mn porphyrins (0.1 to 30 μM) were grown aerobically in 5 mL volume in test tubes in a thermostated orbital shaker (45° angle, 200 rpm) at 37° C.). Rates of growth were followed turbidimetrically at 700 nm to minimize interference from the absorbance of test compounds.

[2] = data from Batinic-Haberle et al 2002, cited from earlier work; for Rf (compound path/solvent path), metal-free porphyrin (in parenthesis): metal-free ligand of the named Mn porphyrin; for Rf (compound path/solvent path), Mn complex: silica gel TLC, KNO3-saturated H2O/H2O/acetonitrile = 1/1/8
[3] = Oxidative degradation in the presence of ascorbic acid under aerobic conditions; type: physicochemical; settings: pH 7.8 (0.05 M tris buffer)
Protocol: Under these conditions porphyrins underwent oxidative degradation. As previously observed (Batinic-Haberle et al, J. Chem. Soc., Dalton Trans., pgs. 2689-2696 (2002)), those porphyrins that are of more positive E1/2 are stabilized in +2 oxidation state and are less prone to oxidative damage. Accordingly, 27% and 24% of MnTE-2-PyP^5+ and MnTMOE-2-PyP^5+ undergo degradation within 2 hours, but only 2% of MnTM,MOE-2-ImP^5+ and MnTDMOE-2-ImP^5+ and 3% of MnTDE-2-ImP^5+.

[4] = Kinetic salt effect on O2.^− dismutation by cytochrome c assay; type: biochemical; settings: for slope of log kcat vs μ^1/2/(1+μ^1/2): 0.05 M phosphate buffer, pH 7.8, 0-0.4 M NaCl
Protocol: Kinetic salt effect. The dependence of the catalytic rate constant for the O2.^− dismutation upon ionic strength was determined by cytochrome c assay (McCord and Fridovich, J. Biol. Chem. 244:6049 (1969)) in 0.05 M phosphate buffer, pH 7.8 with NaCl ranging from 0 to 0.4 M. In doing this, the effect of ionic strength on the rate of the O2.^−/cytochrome c reaction was corrected for.
Kinetic salt effect. The effect of the ionic strength (μ) on the catalytic rate constant was assessed using eq which is based on Debye-Huckel relation (Hambright et al, J. Porphyrins Phthalocyanines 7:139-146 (2003)) for the effect of the ionic strength of the solution on the activity coefficient of an ion. log k=log kref+2AzAzBμ^1/2/(1+μ^1/2) The k is the rate constant at any given ionic strength, while kref is the rate constant at μ=0. The A is a collection of physical constants with a value of 0.509 and zA and zB are the charges of the reacting species. The equation predicts a linear plot of log k vs μ^1/2/(1+μ^1/2). Eq assumes a coefficient of 1.0 (βai) for μ^1/2 in the denominator, i.e., the distance of the closest approach, ai to be 3 A and β is a physical constant, […]. It is doubtful whether great significance can be attributed to the ai, thus to the product zAzB (Hambright et al, J. Porphyrins Phthalocyanines 7:139-146 (2003)), especially so in the light of the bulkiness, high charge and solvation shell of the metalloporphyrins. Accounting for the mono- and diprotonated phosphates as the major species at pH 7.8 (pKa=7.2), and the concentration of the NaCl, the ionic strength was calculated using equation μ=½ Σ mizi^2 where mi is the molality and zi the charge of the given ion.
The slopes of the plots are −6.48 (MnTE-2-PyP^5+), −7.02 (MnTMOE-2-PyP^5+), −7.38 (MnTDMOE-2-ImP^5+), and −4.15 (MnTnBu-2-PyP^5+). As expected (Hambright et al, J. Porphyrins Phthalocyanines 7:139-146 (2003)), when the reactants are ions of opposite charges, the higher the ionic strength of the solution the lower the rate constants, i.e. the slopes are negative. The slopes of the plots indicate clearly the impact of the local dielectric constant on the kcat. The kcat of the most lipophilic compound, MnTnBu-2-PyP^5+ is 40% less sensitive to the changes in ionic strength of the solution than is the kcat of its methoxyethyl analogue, MnTMOE-2-PyP^5+.

[5] = Mn(III)/Mn(II); 0.1 M NaCl, 0.05 M phosphate buffer, pH 7.8; data from Batinic-Haberle et al 2002; cited from earlier work
[6] = pH 7.8, (22 ± 1) °C; data from Batinic-Haberle et al 2002 (MnTE-2-PyP: Inorg. Chem. 40:726 (2001)); cited from earlier work
wild type AB1157 E. coli = assay: Aerobic growth of wild type E. coli (toxicity); type: cell-based; settings: for growth of wild type E. coli: 5AA minimal medium; for toxicity to wild type E. coli / concentration at which toxicity on the parental (wild type) strain is exerted / becomes observable: M9CA medium; for toxicity to wild type E. coli: 30 μM (up to 30 μM); for concentration at which toxicity on the parental (wild type) strain is exerted / becomes observable: range 0.1 to 30 μM
Protocol: as §1, §2

[7] = previously observed (Batinic-Haberle et al 2002), compared with imidazolyl porphyrins; cited from earlier work
[8] = Electrochemistry: cyclic voltammetry of the Mn(III)/Mn(II) redox couple; type: physicochemical; settings: difference vs MnTE-2-PyP^5+ (+228 mV vs NHE)
Protocol: Electrochemistry. Measurements were performed on a CH Instruments Model 600 Voltammetric Analyzer (Spasojevic and Batinic-Haberle, Inorg. Chim. Acta. 317:230-242 (2001), Batinic-Haberle et al, J. Biol. Chem. 273:24521-24528 (1998), Batinic-Haberle et al, Inorg. Chem. 38:4011-4022 (1999)). A three-electrode system in a small volume cell (0.5 mL to 3 mL), with a 3 mm-diameter glassy carbon button working electrode (Bioanalytical Systems), plus the Ag/AgCl reference and Pt auxiliary electrodes was used. Argon-purged solutions contained 0.05 M phosphate buffer, pH 7.8, 0.1 M NaCl, and 0.5 mM metalloporphyrin. The scan rates were 0.01-0.5 V/s, typically 0.1 V/s. The potentials were standardized against the potassium ferrocyanide/ferricyanide (Kolthof and Tomsicek, J. Phys. Chem. 39:945 (1935)) and/or against MnTE-2-PyP^5+ (Spasojevic and Batinic-Haberle, Inorg. Chim. Acta. 317:230-242 (2001), Batinic-Haberle et al, J. Biol. Chem. 273:24521-24528 (1998), Batinic-Haberle et al, Inorg. Chem. 38:4011-4022 (1999)).
Electrochemistry. All cyclic voltammograms, ascribed to the Mn(III)/Mn(II) redox couple, are reversible. The E1/2 of di-ortho ethylimidazolylporphyrin, MnTDE-2-ImP^5+ is 118 mV more positive than of ortho ethylpyridylporphyrin, MnTE-2-PyP^5+ (+228 mV vs NHE), as a consequence of charge delocalization. A similar difference of 114 mV was seen between their methoxyethyl analogues. Mn porphyrins bearing N-pyridyl substituents of the same length, MnTnBu-PyP^5+ and MnTMOE-2-PyP^5+, have nearly identical E1/2 of +254 and +251 mV vs NHE, which is 26 and 23 mV higher than that of MnTE-PyP^5+.

| Structure (SMILES) | aerobic growth of SOD-deficient E. coli ([1]; 5AA minimal medium, 25 μM) | Rf (compound path/solvent path), metal-free porphyrin (in parenthesis) [2] | Rf (compound path/solvent path), Mn complex [2] | slope of log kcat vs μ^1/2/(1+μ^1/2) [4] | Metal-centered redox potential E1/2 [5] | log kcat for O2^− dismutation [6] | aerobic growth of SOD-deficient E. coli ([1]; 5AA minimal medium, 3 μM) | aerobic growth of SOD-deficient E. coli ([1]; M9CA medium, 1 and 3 μM) | aerobic growth of SOD-deficient E. coli ([1]; M9CA medium, 10 and 30 μM) | concentration at which toxicity on the parental (wild type) strain is exerted / becomes observable (wild type AB1157 E. coli) [µM] | further results |
| --- | --- | --- | --- | --- | --- | --- | --- | --- | --- | --- | --- |
| CC[n+]1ccccc1-c1c2nc(c(-c3cccc[n+]3CC)c3ccc([n-]3)c(-c3cccc[n+]3CC)c3nc(c(-c4cccc[n+]4CC)c4ccc1[n-]4)C=C3)C=C2.[Mn+3] [MnTE-2-PyP^5+] | most effective | 0.21 | 0.13 | −6.48 | +228 mV vs NHE | 7.73^e | – | – | – | – | protection of SOD-deficient E. coli ([1]; M9CA medium, 1 μM): low protection; protection of SOD-deficient E. coli ([1]; M9CA medium, 30 μM): either much higher or near full protection; facilitation of aerobic growth of SOD-deficient E. coli, dependence on concentration ([1]; M9CA medium, 1-30 μM): concentration-dependent manner; degradation within 2 hours [3]: 27% |
| CCCCCC[n+]1ccccc1-c1c2nc(c(-c3cccc[n+]3CCCCCC)c3ccc([n-]3)c(-c3cccc[n+]3CCCCCC)c3nc(c(-c4cccc[n+]4CCCCCC)c4ccc1[n-]4)C=C3)C=C2.[Mn+3] [MnTnHex-2-PyP^5+] | failed to do so | 0.63 | 0.57 | – | +314 mV vs NHE | 7.48 | most effective | most effective | progressively less effective | 3 | protection of SOD-deficient E. coli at 0.3 μM compared with 10 μM methyl, ethyl (and MnTDMOE-2-ImP) porphyrins ([1]; M9CA medium, 0.3 μM, listed as n-hexyl): equally protective; also recorded: the same level of protection; toxicity to E. coli at 100-fold lower concentration (wild type AB1157 E. coli; 0.3 μM): mostly eliminated; growth of wild type E. coli (wild type AB1157 E. coli; 3 μM): slowed the growth; growth of wild type E. coli (wild type AB1157 E. coli; up to 25 μM): toxic; toxicity to wild type E. coli (wild type AB1157 E. coli; listed as n-hexyl): prevented wild type E. coli to grow; also recorded: prevent wild type E. coli from growing; stability towards oxidative degradation [7]: same level of stability |
| CCCC[n+]1ccccc1-c1c2nc(c(-c3cccc[n+]3CCCC)c3ccc([n-]3)c(-c3cccc[n+]3CCCC)c3nc(c(-c4cccc[n+]4CCCC)c4ccc1[n-]4)C=C3)C=C2.[Mn+3] [MnTnBu-2-PyP^5+] | – | 0.46 | 0.33 | −4.15 | +254 mV vs NHE | 7.25 | nearly as effective | less effective | most effective | 30 | toxicity to wild type E. coli (wild type AB1157 E. coli): only marginal toxicity; E1/2 more positive / higher than that of MnTE-2-PyP^5+ [8]: 26 mV; kcat less sensitive to changes in ionic strength than MnTMOE-2-PyP^5+ ([4]; vs MnTMOE-2-PyP^5+): 40% |
